This is an account of results in patent US20210116454A1, “METHODS FOR TREATING A HEMATOLOGICAL CANCER AND THE USE OF COMPANION BIOMARKERS FOR 2-(2,6-DIOXOPIPERIDIN-3-YL)-4-((2-FLUORO-4-((3-MORPHOLINOAZETIDIN-1-YL)METHYL)BENZYL)AMINO)ISOINDOLINE-1,3-DIONE” (CELGENE CORPORATION, priority 2019, published 2021).

As a reminder, the IC50 is the concentration needed to halve the response being measured.

Common to all, as to assay: 5-day viable cell number and apoptosis (7-AAD exclusion/Annexin V flow cytometry)
What all share (assay type): cell-based
(In general: In flow cytometry, cells or beads pass a laser one at a time.)

One assay deals with SU-DHL-10. The settings on record: Homo sapiens, SU-DHL10; SU-DHL-10 cells (Table 3); read-out: IC50. An excerpt:
(§1) The DLBCL panel includes seven cell lines classified as activated B-cell (ABC) subtype, thirteen cell lines classified as the germinal center B-cell (GCB) subtype, and three cell lines classified as primary mediastinal B-cell lymphoma (PMBL). […] The translocation of MYC, BCL6, or BCL2 to an IG locus usually leads to high levels of mRNA and protein due to the active transcription driven by a constitutively active IG promoter. […] Expressions of CRBN protein and known substrates, Ikaros, Aiolos, and ZFP91 were also evaluated (FIG. 1, panels B and C).
(§2) The panel of cell lines were treated with increasing doses of compounds for five days, at which time the number of viable cells was measured and the amount of apoptosis was determined by 7-AAD exclusion and Annexin V staining using flow cytometry.

The subject of another assay is RIVA. The following applies: RIVA cells (Table 3); read-out: IC50.
Source text: as §1, §2

A further assay has as its system RC-K8. The settings on record: Homo sapiens, RCK8; RC-K8 cells (Table 3); read-out: IC50.
Source text: as §1, §2

The subject of the next assay is DB. The settings on record: Homo sapiens; DB cells (Table 3).
Source text: as §1, §2

The test system of the next assay is SU-DHL-4. The following applies: Homo sapiens; SU-DHL-4 cells (Table 3); read-out: IC50.
Source text: as §1, §2

A further assay relates to TMD8. The settings on record: Homo sapiens; TMD8 cells (Table 3); read-out: IC50.
Source text: as §1, §2

The next assay concerns Pfeiffer. The settings on record: Homo sapiens; Pfeiffer cells (Table 3).
Source text: as §1, §2

For another assay, the system named is HT. The following applies: Homo sapiens; HT cells (Table 3); read-out: IC50.
Source text: as §1, §2

Another assay concerns U2940. The following applies: Homo sapiens, U-2940; U2940 cells (Table 3); read-out: IC50.
Source text: as §1, §2

For a further assay, the system named is OCI-Ly10. The following applies: Homo sapiens; OCI-Ly10 cells (Table 3); read-out: IC50.
Source text: as §1, §2

A further assay relates to SU-DHL-8. The settings on record: Homo sapiens; SU-DHL-8 cells (Table 3); read-out: IC50.
Source text: as §1, §2

For a further assay, the system named is OCI-LY-3. The settings on record: Homo sapiens, OCI-Ly3; OCI-LY-3 cells (Table 3).
Source text: as §1, §2

A further assay has as its system Toledo. The settings on record: Homo sapiens; Toledo cells (Table 3); read-out: IC50.
Source text: as §1, §2

The subject of the next assay is KARPAS-1106P. The following applies: Homo sapiens; KARPAS-1106P cells (Table 3); read-out: IC50.
Source text: as §1, §2

The next assay concerns OCI-LY-7. The settings on record: Homo sapiens, OCI-Ly7; OCI-LY-7 cells (Table 3); read-out: IC50.
Source text: as §1, §2

The next assay deals with U2932. The following applies: Homo sapiens; U2932 cells (Table 3); read-out: IC50.
Source text: as §1, §2

Turning to `COc1cccc2c1C(=O)c1c(O)c3c(c(O)c1C2=O)C[C@@](O)(C(=O)CO)C[C@@H]3O[C@H]1C[C@H](N)[C@H](O)[C@H](C)O1` [Doxorubicin, reference compound], the IC50 was determined as 0.6 µM with SU-DHL-10; 5.5 µM in the assay on RIVA; 3.5 µM in the assay with RC-K8; 3.8 µM in the assay with DB; 1 µM with SU-DHL-4; 0.7 µM with TMD8. The IC50 amounted to 3 µM with Pfeiffer; 2 µM with HT; 2 µM with U2940; 3 µM in the assay with OCI-Ly10; 0.6 µM in the assay with SU-DHL-8; 11.6 µM in the assay with OCI-LY-3. For the same molecule, the IC50 in the assay with Toledo came out at 4 µM; in the assay on KARPAS-1106P, 1.7 µM; in the assay with OCI-LY-7, 5 µM; in the assay with U2932, 3 µM.
